This note sets out measurements from patent US20230066882A1, “Stable Reporter Flavivirus” (priority 2021, published 2023).

The test relates to panel of stable reporter viruses (DENV1, DENV2, DENV3, DENV4, ZIKV, YFV, JEV). The format is cell-based.

Consider `C#C[C@@]1(O)[C@H](O)[C@@H](CO)O[C@H]1n1ccc2c(N)ncnc21` [NITD008], for which the EC50 values entry is given as “potent” and the “luciferase expression compared to control” value is reported as “decreased luciferase expression”.
